Measured values taken from the supplement of paper PMC11061612.

Assays:
Test in all cases: Bliss excess, mean over the matrix (fraction); higher = more synergy
[1] = test system: NCI-H1993 (Lung Adenocarcinoma)
Outline: (§1)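 After 24 hours at 37°C and 5% CO2 in 1536-well plates, cells in DMEM/F12 or RPMI plus 10% FBS received two-drug dose matrices for 72 hours. Viability came from CellTiter-Glo 2.0 luminescence and was scaled as inhibition, anchored at 0 by vehicle wells and at 1 by blank wells. Combination Emax is taken as the second-highest inhibition in the matrix, and Bliss excess as the observed combination effect less EA + EB − EA·EB, with EA and EB the single-agent effects.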

[2] = test system: DU-145 (Prostate Carcinoma)
Outline: as §1

[3] = test system: ME-180 (Cervical Carcinoma)
Outline: as §1

[4] = test system: A4-Fuk (B-Lymphoblastic Leukemia)
Outline: as §1

[5] = test system: SKN (Other Solid Carcinomas)
Outline: as §1

[6] = test system: MDA-MB-453 (Breast Carcinoma)
Outline: as §1

[7] = test system: OE33 (Esophageal Adenocarcinoma)
Outline: as §1

[8] = test system: SNU-387 (Hepatocellular Carcinoma)
Outline: as §1

[9] = test system: SW982 (Other Solid Carcinomas)
Outline: as §1

[10] = test system: KGN (Other Solid Carcinomas)
Outline: as §1

[11] = test system: NCI-H522 (Lung Adenocarcinoma)
Outline: as §1

[12] = test system: SW872 (Other Solid Carcinomas)
Outline: as §1

[13] = test system: COLO-668 (Small Cell Lung Carcinoma)
Outline: as §1

[14] = test system: Mo-T (Other Blood Carcinomas)
Outline: as §1

[15] = test system: MOLT-4 (T-Lymphoblastic Leukemia)
Outline: as §1

[16] = test system: ML-2 (Acute Myeloid Leukemia)
Outline: as §1

[17] = test system: MOG-G-UVW (Low Grade Glioma)
Outline: as §1

[18] = test system: KMRC-1 (Kidney Carcinoma)
Outline: as §1

[19] = test system: NCI-H1355 (Lung Adenocarcinoma)
Outline: as §1

[20] = test system: EFO-21 (Ovarian Carcinoma)
Outline: as §1

Row | Compound | Bliss excess [1] | Bliss excess [2] | Bliss excess [3] | Bliss excess [4] | Bliss excess [5] | Bliss excess [6] | Bliss excess [7] | Bliss excess [8] | Bliss excess [9] | Bliss excess [10] | Bliss excess [11] | Bliss excess [12] | Bliss excess [13] | Bliss excess [14] | Bliss excess [15] | Bliss excess [16] | Bliss excess [17] | Bliss excess [18] | Bliss excess [19] | Bliss excess [20]
1 | CN(CCO)CC[C@H](CSc1ccccc1)Nc1ccc(S(=O)(=O)NC(=O)c2ccc(N3CCC([C@@H](O)c4ccccc4-c4ccc(Cl)cc4)CC3)cc2)cc1S(=O)(=O)C(F)(F)F [AZD4320] + C[C@@H]1COCCN1C2=NC(=NC(=C2)C3(CC3)[S@](=N)(=O)C)C4=C5C=CNC5=NC=C4 [AZD6738] (first compound max 1 µM, 7x7, partner max 10 µM) | -0.0073 | -0.0335 | 0.0005 | -0.0169 | -0.0394 | -0.0453 | -0.0295 | -0.0443 | -0.0374 | -0.0198 | -0.0555 | -0.039 | 0.0325 | 0.0358 | -0.0084 | 0.0597 | -0.0396 | -0.0358 | -0.0273 | -0.0312
2 | CN(CCO)CC[C@H](CSc1ccccc1)Nc1ccc(S(=O)(=O)NC(=O)c2ccc(N3CCC([C@@H](O)c4ccccc4-c4ccc(Cl)cc4)CC3)cc2)cc1S(=O)(=O)C(F)(F)F [AZD4320] + C[C@@H](Nc1cc(F)cc(F)c1)c1cc(C(=O)N(C)C)cc2c(=O)cc(N3CCOCC3)oc12 [AZD8186] (first compound max 1 µM, 7x7, partner max 3 µM) | 0.0156 | -0.0296 | -0.0137 | 0.0025 | 0.0522 | 0.02 | -0.0082 | 0.0168 | 0.0078 | 0.0014 | -0.0481 | 0.0462 | 0.0083 | 0.0075 | -0.0129 | 0.0182 | -0.086 | -0.0007 | 0.0082 | 0.0323
3 | CN(CCO)CC[C@H](CSc1ccccc1)Nc1ccc(S(=O)(=O)NC(=O)c2ccc(N3CCC([C@@H](O)c4ccccc4-c4ccc(Cl)cc4)CC3)cc2)cc1S(=O)(=O)C(F)(F)F [AZD4320] + CC(=O)O[C@H]1C(=O)[C@@]2(C)[C@H]([C@H](OC(=O)c3ccccc3)[C@]3(O)C[C@H](OC(=O)[C@H](O)[C@@H](NC(=O)c4ccccc4)c4ccccc4)C(C)=C1C3(C)C)[C@]1(OC(C)=O)CO[C@@H]1C[C@@H]2O [Paclitaxel] (first compound max 1 µM, 7x7, partner max 3 µM) | 0.0851 | 0.0406 | 0.139 | -0.0556 | 0.13 | 0.249 | 0.0836 | 0.0767 | 0.0272 | 0.0039 | 0.0246 | -0.0047 | 0.125 | 0.163 | 0.0099 | -0.0009 | -0.0104 | 0.0095 | 0.0513 | 0.0978
4 | C[C@@H](c1ccc2nccn2c1)n1nnc2ncc(-c3cnn(C)c3)nc21 [Savolitinib] + CC1(C)CCC(CN2CCN(c3ccc(C(=O)NS(=O)(=O)c4ccc(NCC5CCOCC5)c([N+](=O)[O-])c4)c(Oc4cnc5[nH]ccc5c4)c3)CC2)=C(c2ccc(Cl)cc2)C1 [Venetoclax] (first compound max 1 µM, 7x7, partner max 1 µM) | -0.0306 | -0.0339 | -0.084 | -0.0269 | -0.0442 | -0.0173 | 0.001 | -0.106 | -0.046 | -0.0249 | -0.0504 | -0.0203 | -0.0624 | -0.0492 | 0.0879 | 0.0096 | 0.0069 | -0.0899 | -0.0398 | -0.0679
5 | COc1cc2c(cc1OCCCCCOc1cc3c(cc1OC)C(=O)N1C=C(C)C[C@H]1C=N3)N=C[C@@H]1CC(C)=CN1C2=O [SG3199] + O=C(c1cc(Cc2n[nH]c(=O)c3ccccc23)ccc1F)N1CCN(C(=O)C2CC2)CC1 [Olaparib] (first compound max 0.001 µM, 7x7, partner max 10 µM) | -0.0352 | -0.0361 | -0.0495 | -0.0267 | -0.0373 | -0.0226 | -0.0276 | -0.0533 | -0.0195 | -0.04 | -0.0245 | -0.0209 | -0.0003 | 0.0118 | 0.0061 | 0.0179 | -0.0081 | -0.0251 | -0.0503 | -0.0709
6 | Cc1nc(Nc2ncc(C(=O)Nc3c(C)cccc3Cl)s2)cc(N2CCN(CCO)CC2)n1 [Dasatinib] + CC(=O)Nc1cccc(-n2c(=O)n(C3CC3)c(=O)c3c(Nc4ccc(I)cc4F)n(C)c(=O)c(C)c32)c1 [Trametinib] (first compound max 2 µM, 7x7, partner max 1 µM) | -0.0254 | -0.0081 | 0.0171 | -0.0013 | -0.0618 | -0.035 | -0.0082 | 0.0213 | -0.0319 | -0.0643 | -0.0082 | 0.101 | -0.0121 | -0.0835 | 0.0717 | -0.122 | -0.028 | -0.0009 | 0.0328 | 0.0296
7 | Cc1cc2ncnn2cc1Nc1ncc2c(n1)n(C1CCOCC1)c(=O)n2C [AZD7648] + C=CCn1c(=O)c2cnc(Nc3ccc(N4CCN(C)CC4)cc3)nc2n1-c1cccc(C(C)(C)O)n1 [AZD1775] (first compound max 10 µM, partner max 1 µM) | -0.0167 | -0.0341 | -0.0378 | -0.0655 | -0.0103 | -0.0223 | 0.0062 | -0.123 | -0.0111 | -0.0266 | 0.0181 | 0.0554 | -0.0151 | -0.14 | 0.0141 | -0.0199 | -0.0301 | 0.0051 | -0.0276 | 0.0175
8 | Cc1cc2ncnn2cc1Nc1ncc2c(n1)n(C1CCOCC1)c(=O)n2C [AZD7648] + CN(C)CCCOc1ccc(-c2ccc3ncc4c(c3c2)n(C2CCOCC2)c(=O)n4C)cn1 [AZD0156] (first compound max 10 µM, 7x7, partner max 1 µM) | -0.0225 | -0.0142 | -0.0167 | 0.0001 | 0.0229 | 0.0257 | 0.0005 | -0.0188 | -0.0471 | -0.0424 | -0.0127 | 0.0713 | -0.0252 | -0.122 | 0.0068 | -0.0154 | 0.0206 | 0.0106 | -0.033 | -0.0063
9 | COc1cc2ncnc(Nc3ccc(F)c(Cl)c3)c2cc1OCCCN1CCOCC1 [Gefitinib] + CC(C)n1c(=O)n(C)c2cnc3cc(F)c(-c4ccc(OCCCN5CCCCC5)nc4)cc3c21 [AZD1390] (first compound max 10 µM, 7x7, partner max 0.3 µM) | -0.0506 | -0.06 | -0.0413 | -0.0704 | -0.0548 | -0.0171 | -0.0434 | -0.0714 | -0.0861 | -0.0632 | -0.0551 | -0.025 | -0.0333 | -0.0475 | 0.009 | -0.0237 | -0.0401 | -0.0702 | -0.039 | -0.0875
10 | N#Cc1cnc(Nc2cc(NC[C@H]3CNCCO3)c(C(F)(F)F)cn2)cn1 [SRA737] + CCc1c2c(nc3ccc(O)cc13)-c1cc3c(c(=O)n1C2)COC(=O)[C@]3(O)CC [SN-38] (first compound max 10 µM, 7x7, partner max 0.3 µM) | 0.0615 | -0.0338 | 0.0247 | -0.0229 | 0.0673 | -0.0401 | -0.0371 | 0.0321 | -0.0929 | -0.0554 | 0.0337 | -0.0142 | -0.0688 | -0.0363 | 0.002 | -0.0549 | 0.0034 | -0.0193 | 0.071 | -0.0498
